IC50 data for 35 compounds are collected here from PubChem BioAssay AID2823 (Broad Institute, 2010).

Active and inactive are the calls of the source. The rule behind the calls is not given here. Bounds are passed on as bounds.

As usually defined, the IC50 is the concentration that inhibits the measured activity by half.

The target of this test is RanGTP-importin-beta complex (human Ran / KPNB1). The test can be described thus: disruptors of RanGTP/KPNB1 binding – biochemical, FRET, CFP/YFP, cell-free homogeneous, confirmation (AID 2823). To be noted: CFP-Ran/YFP-importin-beta FRET ratio.
With `Cc1cc(C)c2c(c1)/C(=c1/sc3n(c1=O)CN(c1ccccc1)CN=3)C(=O)N2`, the IC50 is > 50 µM (inactive).

As to `O=C(NNC(=S)NC(=O)c1ccccc1[N+](=O)[O-])c1ccccc1O`, the IC50 is > 50 µM (inactive). To `Cc1sc2nc(SCC(=O)NCc3ccco3)n(-c3ccccc3)c(=O)c2c1C` belongs > 50 µM (inactive); to `N#Cc1cc2c(ccc3ccccc32)oc1=O`, > 50 µM (inactive); to `CC/C(=N\NC(=O)c1cc(C2CC2)[nH]n1)c1ccccc1`, > 50 µM (inactive). As for `CC(C)c1cc(N2CCN(C(=O)c3ccco3)CC2)n2c(nc3ccccc32)c1C#N`, the concentration for half-maximal inhibition (IC50) was 24.7 µM. Turning to `COc1cccc(NC(=O)CSc2ncc(S(=O)(=O)c3ccccc3)c(=O)[nH]2)c1`, the IC50 is > 50 µM (inactive). Take `COc1ccc(S(=O)Cc2ccc(C(=O)NC3CC3)o2)cc1` (stereo not given): the IC50 is > 50 µM (inactive). Consider `COc1ccc(OC)c(Nc2c3ccccc3nc3ccccc23)c1`, for which the IC50 is > 50 µM (inactive). Turning to `COC(=O)C1=CN(c2ccc(OC)cc2)C=C(C(=O)OC)C1c1cccc(F)c1`, the concentration for half-maximal inhibition (IC50) is 35.2 µM.

As for `CCN(CC)C(=O)Oc1ccc2c(c1)O/C(=C\c1ccco1)C2=O`, the IC50 was 7.92 µM. `Cc1c(Br)c(=O)oc2c(Br)c(O)c(O)cc12`: the IC50 was 26.3 µM. In the case of `CCOC(=O)c1ccc(NC(=O)CSc2nnc(C3CCCCC3)n2C)cc1`, the IC50 was > 50 µM (inactive). To `COc1ccc(C(=O)Oc2c(CN3CCOCC3)cc(Cl)c3cccnc23)cc1` belongs > 50 µM (inactive); to `OCCNc1nc(-c2ccccc2)nc2ccccc12`, > 50 µM (inactive). Under `Cc1ccc(OCC(=O)c2cc(C)n(CC(F)(F)F)c2C)c([N+](=O)[O-])n1` stands > 50 µM (inactive); under `Cc1ccc(N2NC(=O)/C(=C\c3cc4c(cc3[N+](=O)[O-])OCO4)C2=O)cc1C`, > 50 µM (inactive). To `CCOC(=O)c1c(NC(=O)C2CCCCC2)sc2c1CCN(C(C)C)C2` belongs > 50 µM (inactive); to `CCc1c(C)c2cc(Cl)c(O)c(CN3CCCCC3)c2oc1=O`, 22.9 µM.

As for `O=C(O)c1c2c(nc3ccccc13)/C(=C/c1ccc(OC(F)F)cc1)CCC2`, the IC50 was > 50 µM (inactive). Under `CC(=O)Nc1cc(C(=O)N(C)Cc2ccco2)ccc1Sc1ccc(Cl)cc1` stands > 50 µM (inactive); under `COc1ccc(NS(=O)(=O)c2cc(NC(=O)c3cccs3)ccc2N2CCOCC2)cc1`, > 50 µM (inactive). To `COc1ccc(OC)c(N(CC(=O)O)S(=O)(=O)c2ccc(OC)c(OC)c2)c1` belongs > 50 µM (inactive); to `O=C(Cc1n[nH]c(=O)c2ccccc12)NCc1ccccn1`, > 50 µM (inactive); to `CC(C)Cc1nnc(NC(=O)Cc2cccs2)s1`, > 50 µM (inactive). In the case of `O=[N+]([O-])c1ccc(CNC2CCCc3ccccc32)cc1` (stereo not given), the IC50 was > 50 µM (inactive). Under `NC(=O)c1ccccc1NC(=O)/C=C/c1ccc(Cl)cc1` stands > 50 µM (inactive). Under `CCc1ccccc1N(CC(=O)NCc1ccco1)C(=O)CCC(=O)Nc1nccs1` stands > 50 µM (inactive). With `CC(C)Cc1nn2c(N)c(/C=C3\C=Nc4ccccc43)c(=O)nc2s1`, the IC50 is > 50 µM (inactive). Under `O=C(C1CCCCC1)N1CC(=O)N2CCc3ccccc3C2C1` (stereo not given) stands > 50 µM (inactive). Under `O=c1cc(CN2CCN(Cc3ccccc3)CC2)c2ccc(O)cc2o1` stands 11.1 µM; under `CCOCCCNC(=O)/C(C#N)=C/c1cc(Br)c(O)c(Br)c1`, 12.5 µM. Under `Oc1ccc(Br)cc1/C=N/n1c(-c2ccccc2)n[nH]c1=S` stands > 50 µM (inactive); under `CCOc1ccc(N2C(=O)C3C4C=CC(CC4)C3C2=O)c([N+](=O)[O-])c1` (stereo not given), > 50 µM (inactive). With `CCOC(=O)c1ccc2[nH]cc(C(C)=O)c(=O)c2c1`, the IC50 was 12.6 µM.
